The values below come from patent US5196568A, “Compounds useful in enzymatic resolution systems and their preparation” (priority 1988, dated 1993).

In data set [1] the test system is Candida lipase, Genzyme (Enzyme G). Nature of the data set: Asymmetric hydrolysis in a multiphasic bioreactor with Enzyme G.
Method: 3.0 grams of the lipase were dissolved in 500 mls of distilled water; this solution was recirculated in an ultrafiltration mode from the shell into the lumen and back to the reservoir for 30 minutes. The ultrafiltrate was then collected until the reservoir was empty, and methyl isobutyl ketone (MIBK) was then pumped into the shell and recirculated at 400-450 ml/min with a 5-7 psig shell pressure to remove any remaining enzyme solution from the shell.
A reactor was prepared as described in Example 6.2.2.5 (naproxen) using essentially the same mode of loading the enzyme, 3.0 grams of Candida lipase (Enzyme G, from Genzyme Corporation) were ultrafiltered from the shell into the lumen. […] The module was then drained.
No organic solvent was required as the substrate is already a water-immiscible liquid. Phosphate buffer was immediately pumped into the lumen and recirculated at 400-450 ml/min.
The reaction was monitored by following acid production based on hydroxide titration data. […] The aqueous buffer was replaced after 76 minutes and acidified to pH 2.0 with concentrated HCl in the presence of about 200 ml of chloroform.
Data set [2] can be described thus: Solubility of esters, absorbance of saturated solutions at 262 nm. It is filed as physicochemical. The following applies: for Solubility: saturated solution, pH 7 (50 mM phosphate buffer), room temperature; for water solubility: in water.
For data set [3], the system named is Protease XXIII from Aspergillus oryzae (Enzyme A). The experiment in a line: Homogeneous aqueous enzymatic resolution (ester hydrolysis) with Enzyme A. It is filed as biochemical. The note with it: 100 mg enzyme A. On the procedure: No further purification was performed.
Data set [4] deals with protease Prozyme 6 (Enzyme F). The experiment in a line: Homogeneous aqueous enzymatic resolution with Enzyme F. It is filed as biochemical, Aspergillus oryzae. The following applies: for % e.e.: naproxen acid product (R), 100 mg Prozyme 6, pH 7.0, 25 C. On the procedure: The enzymatic reaction mixtures were capped and briefly shaken until all the substrate had dissolved, and the enzyme had completely dissolved or dispersed. […] Evaporation of the ether left a white solid. The result is summarized below in Table 11 Rotations were measured at c=1 in CHCl3.
The enzymatic reaction mixtures were capped and briefly shaken until all the substrate had dissolved, and the enzyme had completely dissolved or dispersed. […] Evaporation of the ether left a white solid. Rotations were measured at c=1 in CHCl3.
The reaction was started by adding 100 mg of the protease (F) from the fungus Aspergillus oryzae (from Amano Enzyme Corporation, Prozyme 6, 60,000 units per mg of solid).
After 20 hours at room temperature, the solution was acidified to pH 2 and extracted with 3 volumes of diethyl ether. The aqueous phase was saved for subsequent workup. The ether phase was washed with two volumes of distilled water and then one volume of saturated sodium chloride, and then it was dried over MgSO4 and subsequently evaporated to dryness. The resolved ibuprofen product recovered was 930 mg of white powder, indicating 45% conversion of racemic ester to acid. The optical rotation was -0.580° (measured at c=1 in ethanol), indicating the R isomer of ibuprofen.
35 mg of protease Enzyme F, as the commercial preparation Prozyme 6, were added to the aqueous solution. The reaction flask was capped, and briefly shaken until all the enzyme had dissolved or dispersed. […] The resulting mixture was diluted with one volume of water and was extracted with diethyl ether (2 times 200 ml). The ether layers were combined and backwashed with water (2 times 200 ml), saturated NaCl solution (200 ml), and then dried over MgSO4.
In this control run, a 0.5M ester solution of (1) was prepared in 325 ml of 0.1M sodium phosphate buffer (pH 7.0). The reaction was started by adding 3 gm of the above enzyme (F). The pH was controlled at 7.0 with 8.22M sodium hydroxide. After 6.49 hours at 30° C., 6.63 ml of hydroxide were added, indicating 37.7% conversion. The reaction was allowed to continue overnight and, after 23.1 hours, a total of 7.2 ml of sodium hydroxide were added, indicating 40.9% conversion.

The target in data set [5] is T1, Protease VIII "Subtilopeptidase A" (Enzyme B) (Bacillus licheniformis, UniProt P00780).
T1 sequence (P00780 106-379): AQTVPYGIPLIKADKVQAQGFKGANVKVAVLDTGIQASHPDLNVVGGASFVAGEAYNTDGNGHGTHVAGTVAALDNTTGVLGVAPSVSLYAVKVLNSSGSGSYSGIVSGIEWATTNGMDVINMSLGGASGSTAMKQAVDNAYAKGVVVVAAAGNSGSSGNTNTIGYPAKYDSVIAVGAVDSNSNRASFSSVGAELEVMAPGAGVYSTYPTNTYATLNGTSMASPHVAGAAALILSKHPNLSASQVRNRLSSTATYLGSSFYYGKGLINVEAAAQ
The experiment in a line: Rates of hydrolysis of the two enantiomers, pH stat, Enzyme B. It is filed as biochemical. The note with it: for Rate (hydrolysis): 50 mM ester, 50 mM Na3PO4 buffer pH 7.6. The method, then:
(§1) 15 ml of a solution containing one enantiomer of the ester at a concentration of 50 mM, and Na3 PO4 buffer at 50 mM and pH 7.6 was observed using a pH stat device. 0.1 ml of a 50 mg/ml solution of enzyme B, made up from the commercially available preparation in 50 mM Na3 PO4 buffer at pH 7.6, were added. Rates of hydrolysis of both enantiomers of the ester compound were determined for the enzyme. The ratio of the rates of hydrolysis for the two enantiomers for the two enantiomers with respect to the enzyme indicate the stereospecificity of that enzyme's hydrolytic action on the racemic mixture of the ester. No evidence for the hydrolysis of the acetylthio ester portion of the substrate molecule was found.

The target of data set [6] is T2, Protease XXVII "Nagarse" (Enzyme D) (Bacillus amyloliquefaciens, UniProt P00782).
T2 construct: purchased Protease XXVII
T2 sequence (P00782 108-382): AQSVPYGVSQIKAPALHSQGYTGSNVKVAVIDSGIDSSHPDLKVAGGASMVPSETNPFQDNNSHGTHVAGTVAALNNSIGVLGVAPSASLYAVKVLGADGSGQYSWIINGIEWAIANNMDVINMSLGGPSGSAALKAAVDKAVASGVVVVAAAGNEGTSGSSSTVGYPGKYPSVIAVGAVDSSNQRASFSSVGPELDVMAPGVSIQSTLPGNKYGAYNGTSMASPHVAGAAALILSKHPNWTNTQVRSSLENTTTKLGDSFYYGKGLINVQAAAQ
Nature of the data set: Rates of hydrolysis of the two enantiomers, pH stat, Enzyme D. It is filed as biochemical. The following applies: for Rate (hydrolysis): 50 mM ester, pH 7.6. The method, then:
as §1, with “D,” for “B,”, “thioacetyl” for “acetylthio”

Data set [7] concerns the target T3, Protease XXIV bacterial protease (Enzyme J) (Bacillus licheniformis, UniProt P00780).
T3 sequence (P00780 106-379): T1 sequence (P00780 106-379)
Nature of the data set: Rates of hydrolysis of the two enantiomers, pH stat, Enzyme J. It is filed as biochemical. The following applies: for Rate (hydrolysis): 50 mM ester, pH 7.6. The method, then: as §1, with “Enzyme J,” for “enzyme B,”

Data set [8] concerns Protease XIV from Streptomyces griseus (Enzyme I). The experiment in a line: Rates of hydrolysis of the two enantiomers, pH stat, Enzyme I. It is filed as biochemical. The note with it: for Rate (hydrolysis): 50 mM ester, pH 7.6. The method, then: as §1, with “solution of protease enzyme I,” for “solution of enzyme B,”, “protease enzyme I, made up” for “of enzyme B, made up”, “for the protease enzyme. The” for “for the enzyme. The”

Data set [9] has as its system Protease XXIII from Aspergillus oryzae (Enzyme A). Nature of the data set: Rates of hydrolysis of the two enantiomers, pH stat, Enzyme A. The format is biochemical. The note with it: for Rate (hydrolysis): 50 mM ester, pH 7.6. The method, then: 15 ml of a solution containing one enantiomer of the ester at a concentration of 50 mM, and Na3 PO4 buffer at 50 mM and pH 7.6 was observed using a pH stat device. 0.1 ml of a 50 mg/ml solution of enzyme A, made up from
the commercially available preparation in 50 mM Na3 PO4 buffer at pH 7.6, were added. Rates of hydrolysis of both enantiomers of the ester compound were determined for the enzyme. The ratio of the rates of hydrolysis for the two enantiomers for the two enantiomers with respect to the enzyme indicate the stereospecificity of that enzyme's hydrolytic action on the racemic mixture of the ester. No evidence for the hydrolysis of the acetylthio ester portion of the substrate molecule was found.

Data set [10] relates to Candida lipase, Sigma L-1754 (Enzyme H). The experiment in a line: Asymmetric hydrolysis in a multiphasic bioreactor with Enzyme H.
Method: The enzyme solution was recirculated from the shell side to the lumen side and back to the solution reservoir in an ultra-filtration mode. […] The procedure was completed in one hour.
The recirculation rate was 400 ml/min and the average pressure on the shell compartment was kept at 6.5 psi by adjusting a throttling valve at the shell side exit. On the lumen side 1 liter of 0.05M K2 PO4 was recirculated at a rate of 400 ml/min. The pH of the aqueous reservoir was kept at 7.0 by addition of 1M NaOH. The reactor was run continuously for 6.8 days.
The reaction progress and rate were monitored by following the caustic consumption.

Each structure is given as a SMILES string. Values after ≈ are worked out from the molar mass of the structure shown. Counter-ions that a name gives are not always drawn. A value given as a limit tells only on which side of the number the result lay.

For `COC(=O)C(C)c1ccc2cc(OC)ccc2c1` (racemic) [Compound 18, Methyl Ester of 2-(6-Methoxy-2-naphthyl)propanoic Acid], the “average rate (hydrolysis)” value in data set [1] (first 45 minutes, 0.75M ester in MIBK, pH 8.50, 3.0 grams lipase) stood at 35 µmol/h.

For `CC(C)Cc1ccc(C(C)C(=O)OCCN(C)C)cc1` (centres unmarked) [2-(N,N-dimethylamino)ethyl ester of ibuprofen, reference compound], the Solubility in data set [2] is reported as 10 mM (≈ 2770 µg/mL).

As to `COc1ccc2cc(C(C)C(=O)OCS(=O)(=O)O)ccc2c1` (centres unmarked) [Compound 9, Sodium Salt of Sulfomethyl Ester of 2-(6-Methoxy-2-naphthyl)propanoic Acid], the “conversion (enzymatic hydrolysis)” value in data set [3] (2.0 gm ester in 400 ml 50 mM sodium phosphate pH 7.5, 25 degrees, 16 hours) was found to be 18%. In data set [3] (pH 7.5, 25 degrees, 16 hours), the “enantiomeric excess of R isomer of naproxen (acid product)” value was 61.2% and the “enantiomeric excess of S isomer of Naproxen (from unconverted ester hydrolysed at pH 12)” value is reported as 45.5%.

In the case of `CC(C)Cc1ccc(C(C)C(=O)OCC[N+](C)(C)C)cc1` (centres unmarked) [Compound 10, Iodide Salt of 2-(N,N,N-Trimethylammonium)ethyl Ester of 2-(4-Isobutylphenyl)propanoic Acid], the Solubility in data set [2] was found to be 2180 mM. In addition, the “% e.e.” value in data set [3] (acid product (R), pH 7.0, 20 hours, 20-22 C) is given as more than 99%.

With `COc1ccc2cc(C(C)C(=O)OCC[N+](C)(C)C)ccc2c1` (centres unmarked) [Compound 11, Methyl Sulfate Salt of 2-(N,N,N-Trimethylammonium)ethyl Ester of 2-(6-Methoxy-2-naphthyl)propanoic Acid], the “% e.e.” value in data set [4] (18 hours) is on record as 34.0%.

Turning to `COc1ccc2cc(C(C)C(=O)OCCC[N+](C)(C)C)ccc2c1` (centres unmarked) [Compound 12, Methyl Sulfate Salt of 3-(N,N,N-Trimethylammonium)propyl Ester of 2-(6-Methoxy-2-naphthyl)propanoic Acid], in [4] (100 mg Prozyme 6, 10 mmol ester in 100 ml 0.2M phosphate buffer pH 7.0, 25 C, 18 hours), the “% CONVERSION” value was 34.0%. Moreover, the “% e.e.” value in [4] (18 hours) was found to be 21.6%. In data set [2], this compound yielded a Solubility of 1610 mM.

As to `CC(=O)SC[C@@H](C)C(=O)OCS(=O)(=O)O` [Compound 14, Potassium Salt of the Sulfomethyl Ester of D-(-)-S-3-Acetylthio-2-methylpropanoic Acid], the “Rate (hydrolysis)” value in data set [5] is recorded as 65 umols/hr/mg; in data set [6] it was 27 umols/hr/mg; in data set [7], 61 umols/hr/mg; in [8], 63 umols/hr/mg; in [9], 5.3 umols/hr/mg.

Consider `CC(=O)SC[C@H](C)C(=O)OCS(=O)(=O)O` [Compound 15, Potassium Salt of the Sulfomethyl Ester of L-(+)-S-3-Acetylthio-2-methylpropanoic Acid], for which the “Rate Ratio L/D” value in [5] came to 2.1; in data set [6], 1.1; in data set [7], 1.1; in data set [8], 1.7; in data set [9], 2.3. In addition, the “Rate (hydrolysis)” value in [5] came out at 135 umols/hr/mg; in data set [6], 29 umols/hr/mg; in data set [7], 65 umols/hr/mg; in [8], 105 umols/hr/mg; in data set [9] it was 12 umols/hr/mg.

Consider `CC(Oc1ccc(Cl)cc1)C(=O)OCS(=O)(=O)O` (centres unmarked) [Compound 17, Sodium Salt of the Sulfomethyl Ester of 2-(4-Chlorophenoxy)propanoic Acid], for which, in data set [4] (35 mg Prozyme 6, 10 mmol ester in 100 ml 0.2M sodium phosphate pH 7.0, 30 C, 1 hour), the reaction completion came to 22.5%.

With `CC(C)Cc1ccc(C(C)C(=O)OCC(F)(F)F)cc1` (centres unmarked) [Compound 19, 2,2,2-Trifluoroethyl Ester of 2-(4-Isobutylphenyl)propanoic Acid], in data set [1] (first 60 minutes, neat liquid ester, pH 7.7, 3.0 grams lipase), the average hydrolytic rate turned out to be 160 µmol/min. The conversion to acid entry in [1] (over the next 76 hours) was “about 9.8%”. The compound further had an average hydrolysis rate in data set [1] (over the next 76 hours, by titrimetry) of 21 µmol/min. For the same compound, in data set [2], the water solubility result is on record as “roughly 0.4 mM” and the Solubility came out at 0.4 mM (≈ 115 µg/mL).

In turn, `CCCCCCCCOC(=O)C(C)Cl` (centres unmarked) [Compound 20, Octyl Ester of 2-Chloropropanoic Acid] yielded an initial ester hydrolyzed in [10] (at termination, 6.8 days) of 41%. Also, the “rate of ester hydrolysis” value in [10] (at the beginning of the experiment, pH 7.0, 30 grams lipase) was found to be 186 µmol/min. In data set [10] (at the end (6.8 days)), the “rate of ester hydrolysis” value was 25 µmol/min. Also, in data set [2], the water solubility entry is recorded as “approximately 1.2 mM” and the Solubility is 1.2 mM (≈ 265 µg/mL).

In data set [2], `COCCOC(=O)C(C)c1ccc(CC(C)C)cc1` (centres unmarked) [Methoxyethyl ester of ibuprofen, reference compound] gave a Solubility of 0.18 mM (≈ 47.6 µg/mL).
